Legend:
GST-MERTK 578-872 = GST-MERTK 578-872 (Homo sapiens (Human), UniProt Q12866); experiment: MERTK kinase homogeneous time resolved fluorescence (HTRF) binding assay; settings: 1 nM kinase, fluorescein-labeled kinase tracer at Kd, 60 minutes at room temperature; read-out: Mer HTRF IC50
Description: (§1) MERTK, AXL, TYRO3 Kinase Homogeneous Time Resolved Fluorescence (HTRF) Assay
(§2) Assays were performed in black, flat-bottom, 1536-well plates. The reactions were incubated at room temperature for 60 minutes, following which the HTRF signals, ratio of fluorescence intensities at emission wavelengths for fluorescein acceptor (520 nm) and terbium donor (495 nm), the 520/495 ratio, were measured on the Envision Plate reader. Inhibition data were calculated from the 520/495 ratio generated by the no protein control reactions for 100% inhibition and vehicle-only reactions for 0% inhibition, and dose response curves generated to determine the concentration required for inhibiting 50% of the HTRF signal (IC50). Compounds were dissolved at 10 mM in dimethylsulfoxide (DMSO) and evaluated at eleven concentrations.

HIS-AXL 473-End = HIS-AXL 473-End (Homo sapiens (Human), UniProt P30530); experiment: AXL kinase homogeneous time resolved fluorescence (HTRF) binding assay; settings: 1 nM kinase, fluorescein-labeled kinase tracer at Kd, 60 minutes at room temperature
HIS-AXL 473-End, sequence (P30530 473-894): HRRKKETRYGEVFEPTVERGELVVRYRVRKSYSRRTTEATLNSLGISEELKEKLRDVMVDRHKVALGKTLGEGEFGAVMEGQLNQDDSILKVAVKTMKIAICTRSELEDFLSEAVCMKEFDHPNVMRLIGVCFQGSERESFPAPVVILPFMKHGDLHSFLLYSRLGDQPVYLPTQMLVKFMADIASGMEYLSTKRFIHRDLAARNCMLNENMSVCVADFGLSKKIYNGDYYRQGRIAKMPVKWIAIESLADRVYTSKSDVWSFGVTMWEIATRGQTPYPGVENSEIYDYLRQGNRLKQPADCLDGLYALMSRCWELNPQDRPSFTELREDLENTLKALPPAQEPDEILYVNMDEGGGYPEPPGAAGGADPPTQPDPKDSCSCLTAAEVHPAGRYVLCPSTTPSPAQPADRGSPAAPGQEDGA
Description: as §1, §2

GST-MERTK 578-872, sequence (Q12866 578-872): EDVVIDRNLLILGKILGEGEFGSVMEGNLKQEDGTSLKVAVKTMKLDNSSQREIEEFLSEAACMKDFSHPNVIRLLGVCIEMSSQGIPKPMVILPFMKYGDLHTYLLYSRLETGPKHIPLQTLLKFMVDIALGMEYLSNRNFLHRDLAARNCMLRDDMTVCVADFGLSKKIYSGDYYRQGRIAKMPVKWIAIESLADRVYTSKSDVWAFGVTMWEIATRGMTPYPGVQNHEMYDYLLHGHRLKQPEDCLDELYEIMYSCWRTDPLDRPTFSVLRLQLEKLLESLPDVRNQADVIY

Row | Structure (SMILES) | IC50 (GST-MERTK 578-872) | IC50 (HIS-AXL 473-End)
1 | CC(C)n1cc(C(=O)Nc2ccc(Oc3ccnc(Nc4ccc(S(=O)(=O)N(C)C)cn4)c3)c(F)c2)c(=O)n(-c2ccccc2)c1=O [Example 42] | 21 nM | 7.4 nM
2 | CN(C)S(=O)(=O)c1ccc(Nc2cc(Oc3ccc(NC(=O)c4cn(C5CC5)c(=O)n(-c5ccccc5)c4=O)cc3F)ccn2)nc1 [Example 43] | 21 nM | 222 nM
3 | CN(C)S(=O)(=O)c1ccc(Nc2cc(Oc3ccc(NC(=O)c4cn(C)c(=O)n(-c5ccc(F)cc5)c4=O)cc3F)ccn2)nc1 [Example 44] | 71 nM | 19 nM
4 | COC[C@H](C)n1cc(C(=O)Nc2ccc(Oc3ccnc(Nc4ccc(S(=O)(=O)N(C)C)cn4)c3)c(F)c2)c(=O)n(-c2ccc(F)cc2)c1=O [Example 45] | 40 nM | 21 nM
5 | CN(C)S(=O)(=O)c1ccc(Nc2cc(Oc3ccc(NC(=O)c4cn([C@@H]5CCOC5)c(=O)n(-c5ccc(F)cc5)c4=O)cc3F)ccn2)nc1 [Example 46] | 12 nM | 5.4 nM
6 | CN(C)S(=O)(=O)c1ccc(Nc2cc(Oc3ccc(NC(=O)c4cn([C@H]5CCOC5)c(=O)n(-c5ccc(F)cc5)c4=O)cc3F)ccn2)nc1 [Example 47] | 7.9 nM | 6 nM
7 | CC(C)n1cc(C(=O)Nc2ccc(Oc3ccnc(Nc4ccc(S(=O)(=O)N(C)C)cn4)c3)c(F)c2)c(=O)n(-c2ccc(F)cn2)c1=O [Example 48] | 15 nM | 4.4 nM
8 | CC(C)n1cc(C(=O)Nc2ccc(Oc3ccnc(Nc4ccc(S(=O)(=O)N(C)C)cn4)c3)c(F)c2)c(=O)n(Cc2ccccc2)c1=O [Example 49] | 3310 nM | 110 nM
9 | CC(C)n1cc(C(=O)Nc2ccc(Oc3ccnc(Nc4ccc(S(=O)(=O)N(C)C)cn4)c3)c(F)c2)c(=O)n(C2CCCCC2)c1=O [Example 53] | 487 nM | 256 nM
10 | CC(C)n1cc(C(=O)Nc2ccc(Oc3ccnc(Nc4ccc(S(=O)(=O)N(C)C)cn4)c3)c(F)c2)c(=O)n(Cc2ccncc2)c1=O [Example 58] | 201 nM | 287 nM
11 | Cc1ccc(-n2c(=O)c(C(=O)Nc3ccc(Oc4ccnc(Nc5ccc(S(=O)(=O)N(C)C)cn5)c4)c(F)c3)cn(C(C)C)c2=O)cc1 [Example 62, N-{4-[(2-{[5-(Dimethylsulfamoyl)pyridin-2-yl]amino}pyridin-4-yl)oxy]-3-fluorophenyl}-3-(4-methylphenyl)-2,4-dioxo-1-(propan-2-yl)-1,2,3,4-tetrahydropyrimidine-5-carboxamide] | 23 nM | 4.6 nM
12 | CC(=O)c1ccc(-n2c(=O)c(C(=O)Nc3ccc(Oc4ccnc(Nc5ccc(S(=O)(=O)N(C)C)cn5)c4)c(F)c3)cn(C(C)C)c2=O)cc1 [Example 64] | 814 nM | 181 nM
13 | CC(C)n1cc(C(=O)Nc2ccc(Oc3ccnc(Nc4ccc(S(=O)(=O)N(C)C)cn4)c3)c(F)c2)c(=O)n(-c2ccc(C(F)(F)F)cc2)c1=O [Example 65] | 127 nM | 100 nM
14 | CC(C)n1cc(C(=O)Nc2ccc(Oc3ccnc(Nc4ccc(S(=O)(=O)N(C)C)cn4)c3)c(F)c2)c(=O)n(-c2ccc(Cl)cc2)c1=O [Example 66] | 29 nM | 31 nM
15 | CC(C)n1cc(C(=O)Nc2ccc(Oc3ccnc(Nc4ccc(S(=O)(=O)N(C)C)cn4)c3)c(F)c2)c(=O)n(-c2cccc(F)c2)c1=O [Example 68] | 20 nM | 7.1 nM
16 | CC(C)n1cc(C(=O)Nc2ccc(Oc3ccnc(Nc4ccc(S(=O)(=O)N(C)C)cn4)c3)c(F)c2)c(=O)n(-c2ccc(F)c(F)c2)c1=O [Example 69] | 23 nM | 18 nM
17 | Cc1cccc(-n2c(=O)c(C(=O)Nc3ccc(Oc4ccnc(Nc5ccc(S(=O)(=O)N(C)C)cn5)c4)c(F)c3)cn(C(C)C)c2=O)c1 [Example 70] | 14 nM | 14 nM
18 | COc1cccc(-n2c(=O)c(C(=O)Nc3ccc(Oc4ccnc(Nc5ccc(S(=O)(=O)N(C)C)cn5)c4)c(F)c3)cn(C(C)C)c2=O)c1 [Example 71] | 40 nM | 12 nM
19 | CC(C)n1cc(C(=O)Nc2ccc(Oc3ccnc(Nc4ccc(S(=O)(=O)N(C)C)cn4)c3)c(F)c2)c(=O)n(-c2cccc(C(F)(F)F)c2)c1=O [Example 72] | 119 nM | 90 nM

Row | Structure (SMILES) | IC50 (GST-MERTK 578-872) | IC50 (HIS-AXL 473-End)
20 | CC(=O)c1cccc(-n2c(=O)c(C(=O)Nc3ccc(Oc4ccnc(Nc5ccc(S(=O)(=O)N(C)C)cn5)c4)c(F)c3)cn(C(C)C)c2=O)c1 [Example 73] | 24 nM | 59 nM
21 | CC(C)n1cc(C(=O)Nc2ccc(Oc3ccnc(Nc4ccc(S(=O)(=O)N(C)C)cn4)c3)cc2)c(=O)n(-c2ccc(F)cc2)c1=O [Example 74, N-{4-[(2-{[5-(dimethylsulfamoyl)pyridin-2-yl]amino}pyridin-4-yl)oxy]phenyl}-3-(4-fluorophenyl)-2,4-dioxo-1-(propan-2-yl)-1,2,3,4-tetrahydropyrimidine-5-carboxamide] | 1440 nM | 2.9 nM
22 | CC(C)n1cc(C(=O)Nc2ccc(Oc3ccnc(Nc4ccc(S(=O)(=O)N(C)C)cn4)c3)cc2)c(=O)n(-c2ccccc2)c1=O [Example 75, N-{4-[(2-{[5-(dimethylsulfamoyl)pyridin-2-yl]amino}pyridin-4-yl)oxy]phenyl}-2,4-dioxo-3-phenyl-1-(propan-2-yl)-1,2,3,4-tetrahydropyrimidine-5-carboxamide] | 42 nM | 3.5 nM
23 | CC(C)n1cc(C(=O)Nc2ccc(Oc3ccnc(Nc4ccc(S(=O)(=O)N5CCCCC5)cn4)c3)c(F)c2)c(=O)n(-c2ccc(F)cc2)c1=O [Example 76, N-{3-Fluoro-4-[(2-{[5-(piperidine-1-sulfonyl)pyridin-2-yl]amino}pyridin-4-yl)oxy]phenyl}-3-(4-fluorophenyl)-2,4-dioxo-1-(propan-2-yl)-1,2,3,4-tetrahydropyrimidine-5-carboxamide] | 38 nM | 18 nM
24 | CNS(=O)(=O)c1ccc(Nc2cc(Oc3ccc(NC(=O)c4cn(C(C)C)c(=O)n(-c5ccc(F)cc5)c4=O)cc3F)ccn2)nc1 [Example 77] | 8.3 nM | 5 nM
25 | CC(C)NS(=O)(=O)c1ccc(Nc2cc(Oc3ccc(NC(=O)c4cn(C(C)C)c(=O)n(-c5ccc(F)cc5)c4=O)cc3F)ccn2)nc1 [Example 78] | 9.8 nM | 986 nM
26 | CC(C)n1cc(C(=O)Nc2ccc(Oc3ccnc(Nc4ccc(S(=O)(=O)NC5CC5)cn4)c3)c(F)c2)c(=O)n(-c2ccc(F)cc2)c1=O [Example 79] | 13 nM | 70 nM
27 | CC(C)n1cc(C(=O)Nc2ccc(Oc3ccnc(Nc4ccc(S(=O)(=O)NC(C)(C)C)cn4)c3)c(F)c2)c(=O)n(-c2ccc(F)cc2)c1=O [Example 80] | 19 nM | 12 nM
28 | CC(C)n1cc(C(=O)Nc2ccc(Oc3ccnc(Nc4ccc(S(=O)(=O)N5CCC5)cn4)c3)c(F)c2)c(=O)n(-c2ccc(F)cc2)c1=O [Example 81] | 17 nM | 4.4 nM
29 | CC(C)n1cc(C(=O)Nc2ccc(Oc3ccnc(Nc4ccc(S(=O)(=O)N5CC(O)C5)cn4)c3)c(F)c2)c(=O)n(-c2ccc(F)cc2)c1=O [Example 82] | 8.8 nM | 256 nM
30 | CC(C)n1cc(C(=O)Nc2ccc(Oc3ccnc(Nc4ccc(S(=O)(=O)N5CCOCC5)cn4)c3)c(F)c2)c(=O)n(-c2ccc(F)cc2)c1=O [Example 84] | 31 nM | 2330 nM
31 | CC(C)n1cc(C(=O)Nc2ccc(Oc3ccnc(Nc4ccc(S(=O)(=O)N5CCN(C)CC5)cn4)c3)c(F)c2)c(=O)n(-c2ccc(F)cc2)c1=O [Example 85] | 19 nM | 3.9 nM
32 | Cc1cc(Nc2cc(Oc3ccc(NC(=O)c4cn(C(C)C)c(=O)n(-c5ccc(F)cc5)c4=O)cc3F)ccn2)ncc1S(=O)(=O)N(C)C [Example 86, N-{4-[(2-{[5-(dimethylsulfamoyl)-4-methylpyridin-2-yl]amino}pyridin-4-yl)oxy]-3-fluorophenyl}-3-(4-fluorophenyl)-2,4-dioxo-1-(propan-2-yl)-1,2,3,4-tetrahydropyrimidine-5-carboxamide] | 31 nM | 10 nM
33 | CC(C)n1cc(C(=O)Nc2ccc(Oc3ccnc(Nc4ccc(NS(C)(=O)=O)cn4)c3)c(F)c2)c(=O)n(-c2ccc(F)cc2)c1=O [Example 87, N-[3-fluoro-4-({2-[(5-methanesulfonamidopyridin-2-yl)amino]pyridin-4-yl}oxy)phenyl]-3-(4-fluorophenyl)-2,4-dioxo-1-(propan-2-yl)-1,2,3,4-tetrahydropyrimidine-5-carboxamide] | 6.7 nM | 16 nM
34 | CC(C)n1cc(C(=O)Nc2ccc(Oc3ccnc(Nc4ccc(N5CCCC5=O)cn4)c3)c(F)c2)c(=O)n(-c2ccc(F)cc2)c1=O [Example 88, N-{3-fluoro-4-[(2-{[5-(2-oxopyrrolidin-1-yl)pyridin-2-yl]amino}pyridin-4-yl)oxy]phenyl}-3-(4-fluorophenyl)-2,4-dioxo-1-(propan-2-yl)-1,2,3,4-tetrahydropyrimidine-5-carboxamide] | 5.6 nM | 3.3 nM
35 | CC(C)n1cc(C(=O)Nc2ccc(Oc3ccnc(Nc4ccc(N5CCC(NC(=O)OC(C)(C)C)C5=O)cn4)c3)c(F)c2)c(=O)n(-c2ccc(F)cc2)c1=O (centres unmarked) [Example 89] | 6.6 nM | 4.4 nM
36 | CC(C)n1cc(C(=O)Nc2ccc(Oc3ccnc(Nc4ccc(N5CCC(N)C5=O)cn4)c3)c(F)c2)c(=O)n(-c2ccc(F)cc2)c1=O (centres unmarked) [Example 90] | 3.1 nM | 2.2 nM
37 | CC(C)n1cc(C(=O)Nc2ccc(Oc3ccnc(Nc4ccc(N5CCN(C(C)(C)C)C5=O)cn4)c3)c(F)c2)c(=O)n(-c2ccc(F)cc2)c1=O [Example 91] | 72 nM | 38 nM

Source: US20230339891A1, “URACIL DERIVATIVES AS MER-AXL INHIBITORS” (BRISTOL-MYERS SQUIBB COMPANY, priority 2018, published 2023)
